Measured values reported in patent US20090281136A1, “PRASUGREL PHARMACEUTICAL FORMULATIONS” (priority 2008, published 2009).

Experiment: Drug-excipient compatibility study (impurity formation on storage at 40° C. and 75% relative humidity)
Type: physicochemical
Experimental: Prasugrel hydrochloride and mixtures with excipients in the weight ratios stated below are mixed well and sifted through an ASTM #40 mesh sieve. The mixture is placed into open glass vials, stored at 40° C. and 75% relative humidity for four weeks, and samples are analyzed at intervals to evaluate the extent of impurity formation. Values for impurities in the table below are calculated as percent by weight of the original prasugrel content.

- Stability in the presence of the excipients studied (accelerated stability testing conditions): acceptable stability
SMILES: CC(=O)Oc1cc2c(s1)CCN(C(C(=O)C1CC1)c1ccccc1F)C2 (stereo not drawn) [Prasugrel, 5-[2-cyclopropyl-1-(2-fluorophenyl)-2-oxoethyl]-4,5,6,7-tetrahydrothieno[3,2-c]pyridin-2-yl acetate]
- Total Impurities, 1 Week (1 week at 40° C. and 75% relative humidity, open glass vials): 0.6547 percent by weight of the original prasugrel content
- Total Impurities, 2 Weeks (2 weeks at 40° C. and 75% relative humidity, open glass vials): 0.6982 percent by weight of the original prasugrel content
- Total Impurities, 3 Weeks (3 weeks at 40° C. and 75% relative humidity, open glass vials): 0.7488 percent by weight of the original prasugrel content
- Total Impurities, 4 Weeks (4 weeks at 40° C. and 75% relative humidity, open glass vials): 0.8998 percent by weight of the original prasugrel content
- Total Impurities, Initial (Initial, open glass vials): 0.6301 percent by weight of the original prasugrel content
